Data as given in article PMC9873307, “Methylone, a rapid acting entactogen with robust anxiolytic and antidepressant-like activity” (Frontiers in Psychiatry, 2023).
Where two headings read alike, the source gives them in different places.

Key:
[1] = cited from earlier work; for reduced immobility in the FST: FST literature
[2] = set-up: method as in PMID 10080230; settings: cited from earlier work
male Sprague Dawley rats [3] = test: Forced swim test (FST); assay type: in vivo, rat; settings: for swimming vs vehicle: Figure 3G
Protocol: (§1) Male Sprague Dawley rats (Charles River Laboratories) weighing 180–200 g on arrival, were used for all behavioral studies, which took place at Melior Discovery (Exton, PA, USA). Rats acclimated to their home cages for at least 1 week before testing, were maintained in a controlled environment on a 12 h light/dark cycle, with no more than 2 rats per cage. Animals received ad libitum access to standard rodent chow and water and were assigned randomly to treatment groups. All animal use and procedures were in accordance with established protocols approved by the Melior IACUC committee, Melior Standard Operation Procedures (SOP), and Transcend Therapeutics. Distinct cohorts of animals were used for each experiment/Figure presented in this manuscript.
(§2) Methylone HCl (0.5–30 mg/kg; Cayman Chemical) or Fluoxetine HCl (10 mg/kg; Sigma-Aldrich) were formulated in sterile 0.9% saline vehicle before IP administration. Control animals received saline vehicle. Methylone or saline was administered 30 min prior to FST or OFT testing sessions. Fluoxetine or saline were administered 23.5, 5, and 1 h prior to testing, consistent with previous studies ([19]).
All studies were performed and scored by an experimenter blind to treatment group according to standard protocols at Melior Discovery (Exton, PA, USA) and based on published “modified FST” procedures ([20]). Briefly, rats were placed in a circular plexiglass container (29.2 cm diameter, 49.5 cm height) filled with water to a depth of 30 cm so rats could not support themselves by touching the bottom of the tank. Water was maintained at 22–25°C and was changed for every animal. Day 1 (Training) consisted of a 15 min acclimation trial, and Day 2 (Testing, 24 h later) consisted of the 5 min test. A time sampling procedure was employed where animals were observed every 5 s for the duration of the test session (60 counts or 5 min) and scored for immobility (defined as the failure to struggle), swimming (defined as a circular movement around the tank), or climbing (defined as an upward escape behavior). Data are expressed as the percent time spent immobile, swimming, or climbing for the 5-min testing session (e.g., the number of immobility counts divided by 60). Therefore, to extrapolate these values to time spent immobile in minutes, one can multiply the percent time immobile by 5 min.

male Sprague Dawley rats [4] = test: Open field test (OFT): locomotor activity and time in center; assay type: in vivo, rat
Protocol: as §1, §2
All studies were performed by an experimenter blind to treatment group and according to standard protocols at Melior Discovery (Exton, PA, USA). The OFT was used to assess both locomotor activity and anxiety-like behavior. The OFT was run in a standard rat OFA chamber (17 ^^′′ × 17 ^^′′ × 12 ^^′′ , Med Associates). After habituation to the testing room and drug injection, rats were assessed for 30 min in the OFT using an automated activity monitoring system (MedAssociates). Locomotor activity was measured by recording the total ambulatory distance traveled (cm), reported in 5-min bins for the duration of the 30 min testing period. The center of the open field was defined as a 12 ^^′′ square, a predefined center setting on the MedAssociates analysis software. Time spent in the center of the open field, an anxiolytic measure, was also recorded for the 30 min testing period.

CNC(C)Cc1ccc2c(c1)OCO2 (stereo not shown) [MDMA, 3,4-methylenedioxymethamphetamine]
reduced immobility in the FST [1]: 47–78%
reduction of immobility compared to vehicle controls ([1]; FST): 47–78%
effect on anxiety ([2]; clinically relevant doses): no effect
effect on anxiety ([2]; higher doses): anxiogenic

CNCCCN1c2ccccc2CCc2ccccc21 [desipramine]
reduced immobility in the FST [1]: 55–75%

CNCCC(Oc1ccc(C(F)(F)F)cc1)c1ccccc1 (stereo not shown) [fluoxetine, reference compound]
climbing behavior vs controls (male Sprague Dawley rats [3]; fluoxetine 10 mg/kg IP x3, Figure 1E): unaffected
swimming behavior vs controls (male Sprague Dawley rats [3]; fluoxetine 10 mg/kg IP x3, Figure 1G): significantly increased
climbing vs vehicle on retest (male Sprague Dawley rats [3]; fluoxetine 10 mg/kg IP x3, 1 h, 24, 72 h, Figure 3E): no effect on climbing
swimming vs vehicle (male Sprague Dawley rats [3]; fluoxetine 10 mg/kg IP x3, 1 h post-dose): significantly increased swimming
swimming vs vehicle (male Sprague Dawley rats [3]; fluoxetine 10 mg/kg IP x3, 24 h post-dose): small but significant increase in swimming
immobility vs vehicle on retest (male Sprague Dawley rats [3]; fluoxetine 10 mg/kg IP x3, tested 1 h, retested 24 and 72 h later, Figure 3C): only showed a significant effect on immobility 1 h post-dose
reduction/change in immobility vs vehicle control (male Sprague Dawley rats [3]; fluoxetine 10 mg/kg IP, three doses 23.5, 5, 1 h before testing): 50%
swimming compared to vehicle (male Sprague Dawley rats [3]; fluoxetine 10 mg/kg x3 alone or with methylone 5 mg/kg, Figure 6D): significantly increased swimming
duration of reduction in immobility (male Sprague Dawley rats [3]; fluoxetine 10 mg/kg, three doses within 24 h before testing): less than 24 h
reduced immobility in the FST [1]: 56%
distance traveled, first 5 min (male Sprague Dawley rats [4]; fluoxetine 10 mg/kg IP x3, 1 h post-dose, Figure 4B): reduced distance traveled
distance traveled over 30-min session, 5-min bins (male Sprague Dawley rats [4]; fluoxetine 10 mg/kg IP x3, Figure 4E): reduced distance traveled in the OFT for the first 15 min
time spent in the center (male Sprague Dawley rats [4]; fluoxetine 10 mg/kg IP x3, Figure 5B): significantly reduced time spent in the center

CNC1(c2ccccc2Cl)CCCCC1=O (stereo not shown) [ketamine]
reduced immobility in the FST [1]: 25–62%

Fc1ccc([C@@H]2CCNC[C@H]2COc2ccc3c(c2)OCO3)cc1 [paroxetine]
reduced immobility in the FST [1]: 40%

CN(C)CCc1c[nH]c2cccc(OP(=O)(O)O)c12 [psilocybin]
reduced immobility in the FST [1]: 67%

CN[C@H]1CC[C@@H](c2ccc(Cl)c(Cl)c2)c2ccccc21 [sertraline]
reduced immobility in the FST [1]: 50–68%
